The results in this text go back to PubChem BioAssay AID1645861 (Buhrlage Lab, Dana-Farber Cancer Institute and Novartis …, 2021).

What is called IC50 is the concentration needed to halve the response being measured.

Calls of active or inactive are those of the source.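 The calls were made as follows: active = compounds whose peak USP7 inhibition across the dose series reached 30% or more; inactive = the rest.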

This test deals with Ubiquitin carboxyl-terminal hydrolase 7 (Homo sapiens) (UniProt Q93009). Briefly: Ubiquitin-specific protease 7 DUB inhibitors, concentration-effect, biochemical, validation of primary hits (AID 1645861). The following applies: purified USP7, Ub-rhodamine cleavage fluorescence, 60 min.
Chain of Ubiquitin carboxyl-terminal hydrolase 7 (Homo sapiens) (Q93009 whole entry, looked up): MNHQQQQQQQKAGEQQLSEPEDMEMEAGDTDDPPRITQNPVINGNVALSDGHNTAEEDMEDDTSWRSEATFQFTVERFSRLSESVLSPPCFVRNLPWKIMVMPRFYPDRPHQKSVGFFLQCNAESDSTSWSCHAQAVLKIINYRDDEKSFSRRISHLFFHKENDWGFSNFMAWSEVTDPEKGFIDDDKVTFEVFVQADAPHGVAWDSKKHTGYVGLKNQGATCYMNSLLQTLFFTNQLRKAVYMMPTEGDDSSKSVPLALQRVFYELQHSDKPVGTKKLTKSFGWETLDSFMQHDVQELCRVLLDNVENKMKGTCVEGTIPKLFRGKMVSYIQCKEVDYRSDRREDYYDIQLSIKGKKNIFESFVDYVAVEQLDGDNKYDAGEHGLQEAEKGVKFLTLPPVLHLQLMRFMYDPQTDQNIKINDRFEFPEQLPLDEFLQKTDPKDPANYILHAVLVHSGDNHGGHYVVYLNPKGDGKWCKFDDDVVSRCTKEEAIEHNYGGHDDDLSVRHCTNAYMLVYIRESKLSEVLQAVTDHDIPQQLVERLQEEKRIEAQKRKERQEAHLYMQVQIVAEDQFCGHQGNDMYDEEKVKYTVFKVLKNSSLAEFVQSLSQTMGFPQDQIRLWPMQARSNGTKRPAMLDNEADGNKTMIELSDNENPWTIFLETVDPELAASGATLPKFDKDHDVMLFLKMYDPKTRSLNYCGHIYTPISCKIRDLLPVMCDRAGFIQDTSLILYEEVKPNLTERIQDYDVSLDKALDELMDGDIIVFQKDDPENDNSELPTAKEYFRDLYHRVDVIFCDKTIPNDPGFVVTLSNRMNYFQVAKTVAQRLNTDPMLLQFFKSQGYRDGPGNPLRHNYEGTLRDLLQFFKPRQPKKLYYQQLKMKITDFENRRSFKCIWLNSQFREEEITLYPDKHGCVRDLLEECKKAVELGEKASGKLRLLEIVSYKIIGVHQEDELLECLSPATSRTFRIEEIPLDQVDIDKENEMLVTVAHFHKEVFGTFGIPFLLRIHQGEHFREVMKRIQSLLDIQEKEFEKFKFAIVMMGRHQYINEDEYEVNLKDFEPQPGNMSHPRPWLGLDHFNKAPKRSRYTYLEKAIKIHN
On to `O=C(NCc1ccc2c(c1)OCO2)c1[nH]nc2c1COc1ccccc1-2`, for which the IC50 was > 50 µM (inactive).

Regarding `O=C(Cn1c(=O)n(Cc2ccc(C(=O)NCc3ccco3)cc2)c(=O)c2ccccc21)Nc1ccc2c(c1)OCCO2`, the IC50 is > 50 µM (inactive).

For `Cc1ccc(-n2cc(-c3noc(C(=O)Nc4ccc(F)cc4C)n3)nn2)cc1`, the IC50 is > 50 µM (inactive).

With `O=C(O)c1ccccc1C(=O)Nc1ccc(SC(C(=O)Nc2cccc(Cl)c2)c2ccccc2)cc1` (stereo unspecified), the IC50 was > 50 µM (inactive).

For `Cc1cccc(N2C(=O)/C(=C\c3cc(C#N)n(C)c3C)c3ccccc3C2=O)c1`, the IC50 was > 50 µM (inactive).

As for `COC(=O)c1ccccc1NC(=O)Cn1c(=O)n(Cc2ccc(C(=O)NCc3ccco3)cc2)c(=O)c2ccccc21`, the IC50 is > 50 µM (inactive).

For the molecule `O=C(COc1ccccc1-c1nnc(-c2ccccc2)o1)NCCc1ccco1`, the IC50 is > 50 µM (inactive).

For `N#Cc1ccccc1NC(=O)c1cc2c(s1)-c1ccccc1S(=O)(=O)C2`, the IC50 was > 50 µM (inactive).

As for `O=C(COc1ccc(N2CC(C(=O)NCc3ccc4c(c3)OCO4)CC2=O)cc1)Nc1ccc(F)cc1` (stereo unspecified), the IC50 is > 50 µM (inactive).

As to `COc1ccc(NC(=O)Cn2c(=O)n(Cc3ccco3)c(=O)c3ccc(C(=O)NC4CCCC4)cc32)cc1`, the IC50 is > 50 µM (inactive).

On to `Cc1ccc(C)c(NC(=O)Cn2cc(C(=O)C3CC3)c3ccccc32)c1`, for which the IC50 is 40.6 µM.

Regarding `O=C(Nc1ccccc1C(=O)O)c1ccc(CSCc2ccccc2)cc1`, the IC50 is > 50 µM (inactive).

For the molecule `O=C(Nc1ccccc1Cc1ccccc1)c1nc2n(n1)-c1ccccc1S(=O)(=O)N2`, the IC50 was > 50 µM (inactive).

With `COC(=O)c1c(OC)cc2c(c1C)Oc1c(Cl)c(O)c(Cl)c(C)c1C(=O)O2`, the IC50 is > 50 µM (inactive).

Turning to `Cc1nc(-c2noc(-c3cccc(F)c3)n2)cn1CC(=O)Nc1ccccc1`, the IC50 was > 50 µM (inactive).

Regarding `CCOC(=O)c1ccc(Oc2sccc2[N+](=O)[O-])cc1`, the IC50 was 10.7 µM.

On to `Cc1cc(=O)n(CC(=O)Nc2ccccc2C)c(Nc2ccc(F)cc2)n1`, for which the IC50 is > 50 µM (inactive).

With `O=C(CCCCn1c(=O)c2ccccc2n(CC(=O)Nc2ccc3c(c2)OCCO3)c1=O)NCc1ccco1`, the IC50 is > 50 µM (inactive).

Take `CCCCCCCCCC(CCCCCCCCCC(=O)O)O[C@H]1O[C@@H](COC(C)=O)[C@H](O)[C@@H](O)[C@H]1OC(=O)CC(=O)O` (stereo partly specified): the IC50 is > 50 µM (inactive).

In the case of `CCOc1ccc(-c2noc(-c3nn(-c4cccc(OC)c4)ccc3=O)n2)cc1`, the IC50 is > 50 µM (inactive).

Consider `COc1c(O)cc(CC(=O)O)c(C(C)=O)c1O`, for which the IC50 was 47.4 µM.

Regarding `CCCCCCCCCC(CCCCCCCCCC(=O)O)O[C@H]1O[C@@H](COC(C)=O)[C@H](O)[C@@H](OC(=O)CC(=O)O)[C@H]1O` (stereo partly specified), the IC50 is > 50 µM (inactive).

Turning to `COc1cn(-c2ccc(F)cc2)nc1C(=O)Nc1ccc(Cl)cc1Cl`, the IC50 is > 50 µM (inactive).

In the case of `O=C(NCCc1ccccc1)c1ccc2c(=O)n(Cc3ccco3)c(=O)n(Cc3cccc([N+](=O)[O-])c3)c2c1`, the IC50 is 13.4 µM.

For `O=C(Cn1c(=O)c2ccccc2n(CC(=O)Nc2ccc(Br)cc2)c1=O)NCc1ccco1`, the IC50 was > 50 µM (inactive).

For the molecule `O=C(CSc1nnc2n(-c3ccccc3)c(=O)c3ccccc3n12)c1ccc(F)cc1`, the IC50 is > 50 µM (inactive).

For `Cc1cc(NC(=O)c2cc(-c3cccnc3)n[nH]2)ccc1Br`, the IC50 is 48.6 µM.

In the case of `COc1cccc2cc(C(=O)Nc3nc(-c4ccncc4)cs3)oc12`, the concentration for half-maximal inhibition (IC50) was 18.3 µM.

In the case of `O=C(COC(=O)c1ccc(NS(=O)(=O)c2ccc(F)c(F)c2)cc1)Nc1ccc(OCc2ccccc2)cc1`, the IC50 is > 50 µM (inactive).

For `COc1cc2c(c(OCC(=O)Nc3ccc4c(c3)OCCO4)c1)C(=O)O[C@@H](C)CCCC(=O)CCCCC2`, the IC50 was > 50 µM (inactive).

As for `COc1cc2cc3c(c(O)c2c(O)c1-c1c(OC)cc2cc4c(c(O)c2c1O)C(=O)OC1CC(C)OC41)C(=O)OC1CC(C)OC31` (stereo unspecified), the IC50 was > 50 µM (inactive).

Take `Cc1ccc(NC(=O)Cc2nnc3cc(-c4nc(C)no4)ccn23)cc1`: the IC50 is 45.4 µM.

On to `COc1ccc(OC)c(-c2cn3ccn(-c4ccc(F)c(Cl)c4)c(=O)c3n2)c1`, for which the IC50 was > 50 µM (inactive).

Take `O=C(Nc1cccc(Cl)c1)c1ncn2c1CNS(=O)(=O)c1ccccc1-2`: the IC50 is > 50 µM (inactive).

For `O=C(/C=C/c1c(F)cccc1Cl)N1CCc2ccccc2C1`, the IC50 was > 50 µM (inactive).

With `Cc1ccc(CNC(=O)CCCn2c(=O)c3sccc3n(CC(=O)Nc3cc(Cl)ccc3C)c2=O)cc1`, the IC50 was > 50 µM (inactive).

As for `CC1CCCN(S(=O)(=O)c2ccc(-n3cnc(C(=O)NC4CC4)c3)nc2)C1` (stereo unspecified), the IC50 was > 50 µM (inactive).

For `Cc1ccc(-c2cc(C(F)F)n3ncc(C(=O)Nc4ccc(O)cc4)c3n2)cc1`, the IC50 is > 50 µM (inactive).

For `CCCCCC1OC(=O)c2c(C)cccc2Oc2ccc(O)c(C=O)c2/C=C/C1O` (stereo unspecified), the IC50 was > 50 µM (inactive).

Turning to `CCn1cc2c(n1)c(=O)n(Cc1ccccc1)c(=O)n2CC(=O)Nc1ccc(C(C)C)cc1`, the IC50 was > 50 µM (inactive).

In the case of `Cn1c(=O)[nH]c2nncnc2c1=O`, the IC50 is > 50 µM (inactive).

Consider `COc1ccc(Sc2nc3ccccc3n3cnnc23)cc1`, for which the IC50 was > 50 µM (inactive).

On to `Cc1ccc(C(=O)c2cn(CC(=O)Nc3ccc4c(c3)OCO4)c3ccccc3c2=O)cc1`, for which the IC50 was > 50 µM (inactive).

Take `Cn1nc(Cl)c(Cl)c1Oc1ccc(S(=O)(=O)Nc2ccc(Oc3ccc(C(F)(F)F)cn3)c(Cl)c2)cc1`: the IC50 is 46.4 µM.

For the molecule `COc1ccc(NC(=O)Cn2c(=O)n(-c3ccc(CC(=O)NCc4ccco4)cc3)c(=O)c3ccccc32)cc1Cl`, the IC50 was > 50 µM (inactive).

For `O=C(Cn1c(=O)n(CCC(=O)N2CCc3ccccc3C2)c(=O)c2ccccc21)NCc1ccccc1Cl`, the IC50 was > 50 µM (inactive).

For the molecule `Cc1ccnc(Nc2nc(-c3ccccc3)c3cc(Cl)ccc3n2)n1`, the IC50 is 38.5 µM.

Turning to `CCOc1ccc(-n2c(SCC(=O)Nc3ccc(C)cc3)nnc2-c2c[nH]c3ccccc23)cc1`, the IC50 is > 50 µM (inactive).

Consider `CCOC(=O)c1ccc(NC(=O)Cn2c(=O)n(-c3ccc(CC(=O)NCc4ccco4)cc3)c(=O)c3ccccc32)cc1`, for which the IC50 is > 50 µM (inactive).

`COc1ccc(OC)c(NC(=O)c2sc(-c3ccccc3)nc2C)c1`: the IC50 was > 50 µM (inactive).

Take `COc1ccc(OCCn2c(C3CC(=O)N(c4cccc(C)c4)C3)nc3ccccc32)cc1` (stereo unspecified): the IC50 is > 50 µM (inactive).

As to `Cc1ccnc(NS(=O)(=O)c2ccc(NC(=O)c3ccc(S(=O)(=O)N(C)Cc4ccccc4)cc3)cc2)n1`, the IC50 was > 50 µM (inactive).

Regarding `Cc1nn(-c2ccccc2)c2c1C1(C(=O)Nc3ccccc31)N1C(=N2)Sc2ccccc21` (stereo unspecified), the IC50 is 3.39 µM.

Take `Cn1c2ccccc2c(=O)c2c(=O)n(Cc3ccccc3)c(-c3ccco3)nc21`: the IC50 is > 50 µM (inactive).

On to `O=C(Cn1c(=O)c2ccccc2n(CC(=O)Nc2cccc(F)c2)c1=O)NCCc1ccccc1`, for which the IC50 is > 50 µM (inactive).

Consider `COc1ccc(NC(=O)Cn2c(=O)n(CCC(=O)NCc3ccccc3)c(=O)c3sccc32)cc1Cl`, for which the IC50 was > 50 µM (inactive).
